Measured values: ChEMBL document CHEMBL1201862, “PubChem BioAssay data set” (2004)
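Briefly, cells in 96-well plates were exposed to five compound concentrations for 48 h, and endpoints were estimated by linear interpolation. At the GI50, growth is halved.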 Active and inactive are the calls of the source. No stated cut-off is given here; in the data, active = GI50 up to about 1.1 µM and inactive = higher.

What was measured:
Test in all cases: inhibition of tumour cell growth, NCI panel, 48 h
[1] = system: COLO 205
[2] = system: HOP-92
[3] = system: OVCAR-5
[4] = system: HCT-15
[5] = system: NCI-H460
[6] = system: HT-29
[7] = system: RXF 393
[8] = system: SK-OV-3
[9] = system: HCT-116
[10] = system: SK-MEL-2
[11] = system: NCI-H23
[12] = system: SW-620
[13] = system: LOX IMVI
[14] = system: SK-MEL-28
[15] = system: EKVX
[16] = system: UACC-62
[17] = system: OVCAR-3
[18] = system: Malme-3M
[19] = system: SF-539
[20] = system: HCC 2998

| SMILES | GI50 [1] | GI50 [2] | GI50 [3] | GI50 [4] | GI50 [5] | GI50 [6] | GI50 [7] | GI50 [8] | GI50 [9] | GI50 [10] | GI50 [11] | GI50 [12] | GI50 [13] | GI50 [14] | GI50 [15] | GI50 [16] | GI50 [17] | GI50 [18] | GI50 [19] | GI50 [20] |
| --- | --- | --- | --- | --- | --- | --- | --- | --- | --- | --- | --- | --- | --- | --- | --- | --- | --- | --- | --- | --- |
| CN1NC(c2ccc(Cl)cc2)=C(C#N)C(=O)CC1c1ccccc1 (stereo not given) | > 100 µM (inactive) | > 100 µM (inactive) | > 100 µM (inactive) | > 100 µM | > 100 µM (inactive) | > 100 µM (inactive) | > 100 µM (inactive) | > 100 µM (inactive) | > 100 µM (inactive) | > 100 µM (inactive) | > 100 µM (inactive) | > 100 µM (inactive) | > 100 µM (inactive) | > 100 µM (inactive) |  |  |  |  |  |  |
| Cc1c2cnccc2c(C)c2c1c1ccccc1n2CC1CO1 (stereo not given) | 1.16 µM (inactive) | 1.81 µM (inactive) | 2.05 µM (inactive) | 1.54 µM | 0.454 µM (active) | 1.72 µM (inactive) | 0.427 µM (active) | 2.53 µM (inactive) | 0.327 µM (active) | 1.66 µM (inactive) | 0.422 µM (active) | 0.345 µM (active) | 0.393 µM (active) | 1.71 µM (inactive) | 0.687 µM (active) | 1.63 µM (inactive) | 1.57 µM (inactive) | 1.75 µM (inactive) | 1.21 µM (inactive) | 1.18 µM (inactive) |
| CC1C2CC(CC2O)C1(C)C (stereo not given) | > 100 µM (inactive) | > 100 µM (inactive) | > 100 µM (inactive) |  | > 100 µM (inactive) | > 100 µM (inactive) | > 100 µM (inactive) | > 100 µM (inactive) | > 100 µM (inactive) |  | > 100 µM (inactive) | > 100 µM (inactive) |  | > 100 µM (inactive) |  | > 100 µM (inactive) | > 100 µM (inactive) | > 100 µM (inactive) | > 100 µM (inactive) |  |
| CC(=O)NNc1nc(C)c(C(=O)NNC(=O)C(=O)Nc2ccccc2C#N)s1 | > 100 µM (inactive) | > 100 µM (inactive) | > 100 µM (inactive) | > 100 µM | > 100 µM (inactive) | > 100 µM (inactive) | > 100 µM (inactive) | > 100 µM (inactive) | > 100 µM (inactive) | > 100 µM (inactive) | > 100 µM (inactive) | > 100 µM (inactive) | > 100 µM (inactive) | > 100 µM (inactive) | > 100 µM (inactive) | > 100 µM (inactive) | > 100 µM (inactive) | > 100 µM (inactive) | > 100 µM (inactive) | > 100 µM (inactive) |
| O=C1C(Br)=CC2([N+](=O)[O-])CCNC3=C(C4=NCCc5c[nH]c(c54)C3=O)C2=C1Br (stereo not given) | 0.0178 µM (active) | 0.811 µM (active) | 1.1 µM (active) | 0.796 µM | 3.39 µM (inactive) | 0.553 µM (active) | 2.39 µM (inactive) | 3.13 µM (inactive) | 0.317 µM (active) | 1.65 µM (inactive) | 1.39 µM (inactive) | 0.0497 µM (active) | 1.56 µM (inactive) | 3.26 µM (inactive) | 2.33 µM (inactive) | 1.72 µM (inactive) | 0.0546 µM (active) |  | 2.11 µM (inactive) | 2.62 µM (inactive) |
| COC(=O)c1cccc(N[C@@H]2c3cc4c(cc3C(c3cc(OC)c(O)c(OC)c3)[C@H]3C(=O)OCC32)OCO4)c1 (stereo not given in full) | 1.33 µM (inactive) | 1.06 µM (active) | 6.67 µM (inactive) | 1.08 µM | 0.0351 µM (active) | 1.69 µM (inactive) | 1.33 µM (inactive) | 2.86 µM (inactive) | 0.682 µM (active) | 4.69 µM (inactive) | 0.63 µM (active) | 1.97 µM (inactive) | 0.859 µM (active) | 2.67 µM (inactive) | 4.03 µM (inactive) | 0.729 µM (active) | 2.07 µM (inactive) | 2.33 µM (inactive) | 0.528 µM (active) | 2.19 µM (inactive) |
| CN1CCC(C(O)(c2ccccc2)c2ccc(Br)cc2)CC1 (stereo not given) | 15.3 µM (inactive) | 8.45 µM (inactive) | 21.2 µM (inactive) | 35.6 µM | 23.4 µM (inactive) | 20 µM (inactive) | 18.3 µM (inactive) | 32.7 µM (inactive) | 18.8 µM (inactive) | 16.2 µM (inactive) | 46.9 µM (inactive) | 21.4 µM (inactive) | 15.8 µM (inactive) | 16.7 µM (inactive) | 28.8 µM (inactive) | 15.7 µM (inactive) | 39.4 µM (inactive) | 14.5 µM (inactive) | 17.6 µM (inactive) | 12.6 µM (inactive) |
| CCCN(CCC)c1cc2c(cc1F)c(=O)c(C(=O)O)cn2-c1ccc(N2CCN(C)CC2)cn1 | 13.4 µM (inactive) | 13 µM (inactive) | 18.8 µM (inactive) | 22.9 µM | 17.5 µM (inactive) | 14.7 µM (inactive) | 18.7 µM (inactive) | 14.3 µM (inactive) | 15.3 µM (inactive) |  | 16.7 µM (inactive) | 16.2 µM (inactive) | 3 µM (inactive) | 19.6 µM (inactive) | 16.7 µM (inactive) | 18.5 µM (inactive) | 15.7 µM (inactive) | 13.3 µM (inactive) | 17.1 µM (inactive) |  |
| COc1ccc(-c2cc(O)c3ccc(C)nc3n2)cc1 | > 100 µM (inactive) | 97.7 µM (inactive) | > 100 µM (inactive) | > 100 µM |  | 81.5 µM (inactive) | > 100 µM (inactive) | > 100 µM (inactive) |  | > 100 µM (inactive) | > 100 µM (inactive) | > 100 µM (inactive) | > 100 µM (inactive) | > 100 µM (inactive) | > 100 µM (inactive) | 86.1 µM (inactive) |  | > 100 µM (inactive) | > 100 µM (inactive) | > 100 µM (inactive) |
| CCOC(=O)Oc1cc2ccsc2c2c1c1ccccc1n2C(=O)OCC | > 100 µM (inactive) | 22 µM (inactive) | > 100 µM (inactive) | 26.2 µM | 30.9 µM (inactive) | 69.5 µM (inactive) | 22.2 µM (inactive) | 29 µM (inactive) | 54.6 µM (inactive) | 48.3 µM (inactive) | 52.5 µM (inactive) | 94.8 µM (inactive) | > 100 µM (inactive) | > 100 µM (inactive) | 60.7 µM (inactive) | 34.4 µM (inactive) | 70.1 µM (inactive) | 33.7 µM (inactive) | 36.4 µM (inactive) |  |
| O=C(Cc1nc2ccc(C(=O)c3ccccc3)cc2nc1O)C(=O)Nc1nc2ccccc2[nH]1 | 36.8 µM (inactive) | 23 µM (inactive) |  | 75 µM | 46.5 µM (inactive) | 52.7 µM (inactive) |  | > 100 µM (inactive) | 51.6 µM (inactive) |  | 44.6 µM (inactive) | 42.9 µM (inactive) | 44 µM (inactive) | 98.6 µM (inactive) | > 100 µM (inactive) | 38.7 µM (inactive) | 62.5 µM (inactive) | 87.9 µM (inactive) | 71 µM (inactive) | > 100 µM (inactive) |
| CSc1nc2c(c(N3CCOCC3)n1)C(O)n1c(nc3ccccc31)S2 (stereo not given) | 0.055 µM (active) | 72.3 µM (inactive) | > 100 µM (inactive) | 63 µM | 13.6 µM (inactive) | > 100 µM (inactive) | 80.4 µM (inactive) | 96.2 µM (inactive) | > 100 µM (inactive) | 29.7 µM (inactive) | 67.8 µM (inactive) | 32.1 µM (inactive) | > 100 µM (inactive) |  | > 100 µM (inactive) | > 100 µM (inactive) | 69.2 µM (inactive) | 52.2 µM (inactive) | 3.8 µM (inactive) | > 100 µM (inactive) |
| NC(=O)c1c[se]c(C2OC(COP(=O)(O)CP(=O)(O)OCC3OC(n4cnc5c(N)ncnc54)C(O)C3O)C(O)C2O)n1 (stereo not given) | 93.1 µM (inactive) | > 100 µM (inactive) | > 100 µM (inactive) |  | 44.8 µM (inactive) | 53.2 µM (inactive) | > 100 µM (inactive) | > 100 µM (inactive) | 52.1 µM (inactive) | > 100 µM (inactive) | > 100 µM (inactive) | 30.9 µM (inactive) |  | > 100 µM (inactive) | > 100 µM (inactive) |  | > 100 µM (inactive) | > 100 µM (inactive) | > 100 µM (inactive) |  |
| COc1cccc(NC(=O)CSc2nnc(-c3ccc(NC(C)=O)cc3)o2)c1 | > 100 µM (inactive) | > 100 µM (inactive) | 83.2 µM (inactive) | > 100 µM | > 100 µM (inactive) | 39.6 µM (inactive) | > 100 µM (inactive) | > 100 µM (inactive) | > 100 µM (inactive) | > 100 µM (inactive) | > 100 µM (inactive) | > 100 µM (inactive) | > 100 µM (inactive) | > 100 µM (inactive) |  | > 100 µM (inactive) | > 100 µM (inactive) | > 100 µM (inactive) |  |  |
| CC(Cc1ccccc1)Nc1ncnc2c1ncn2C1OC(CO)CC1O (stereo not given) | > 100 µM (inactive) | > 100 µM (inactive) | > 100 µM (inactive) | > 100 µM | > 100 µM (inactive) | > 100 µM (inactive) | > 100 µM (inactive) | 3.71 µM (inactive) | > 100 µM (inactive) | > 100 µM (inactive) | > 100 µM (inactive) | > 100 µM (inactive) | > 100 µM (inactive) | > 100 µM (inactive) | > 100 µM (inactive) | > 100 µM (inactive) | > 100 µM (inactive) | > 100 µM (inactive) |  | > 100 µM (inactive) |
